One data set has as its system MCF7. Briefly: Antiproliferative activity against human MCF7 cells assessed as inhibition of cell growth measured after 72 hrs by CCK8 assay. The class given is functional, cell-based. The conditions noted are these: MCF7, 72 h.
A further data set relates to A-375. Briefly: Antiproliferative activity against human A-375 cells assessed as inhibition of cell growth measured after 72 hrs by CCK8 assay. The class given is functional, cell-based. The settings on record: A-375, 72 h. A general note: Tetrazolium assays rely on reduction of a dye to a coloured formazan, in cell work by metabolically active cells.
The nature of data set [1]: Cytotoxicity against human C-28/I2 cells measured after 72 hrs by CCK8 assay. Type of data set: toxicity, cell-based.
The next data set relates to SK-MEL-2. Briefly: Antiproliferative activity against human SK-MEL-2 cells assessed as inhibition of cell growth measured after 72 hrs by CCK8 assay. Type of data set: functional, cell-based. The conditions noted are these: SK-MEL-2, 72 h.
The next data set concerns SK-HEP1. Briefly: Antiproliferative activity against human SK-HEP1 cells assessed as inhibition of cell growth measured after 72 hrs by CCK8 assay. Type of data set: functional, cell-based. The conditions noted are these: SK-HEP1, 72 h.

Broadly, the IC50 is the concentration that gives 50% inhibition. As a reminder, the CC50 is the concentration giving 50% cytotoxicity. In the case of `Cn1c(=O)c2c(NC3CC3)c(Cc3ccccc3)c(=O)n(C)c2n(C)c1=O`, the IC50 in the data set on MCF7 was 35.9 µM; with A-375 it was 45.9 µM. In data set [1], this compound came in with a CC50 at 72 h of more than 100 µM.
For `CN(C)c1cc(NCC(=O)Nc2ccc(OC(F)(F)F)cc2)c2c(=O)n(C)c(=O)n(C)c2n1`, the IC50 in the data set on A-375 was 39.2 µM; in the data set with SK-MEL-2, more than 50 µM. Besides, the CC50 at 72 h in data set [1] is more than 25 µM.
On the same counts, the results for `Cn1c(=O)c2c(NCC(=O)Nc3cccc(Cl)c3)cc(N3CCCC3)nc2n(C)c1=O` are 48.6 µM, more than 50 µM and more than 100 µM.
For `Cn1c(=O)c2c(NCC(=O)Nc3ccc(Cl)cc3)cc(N3CCOCC3)nc2n(C)c1=O`, the IC50 in the data set on A-375 stood at 43.2 µM; with SK-MEL-2, 46.5 µM. For the same compound, the CC50 at 72 h in data set [1] is more than 100 µM.
On the same counts, the results for `CN(C)c1cc(NCC(=O)Nc2ccc(C(F)(F)F)cc2)c2c(=O)n(C)c(=O)n(C)c2n1` are 43.2 µM, more than 50 µM and more than 50 µM.
Turning to `CN(C)c1cc(NCC(=O)Nc2ccc(F)cc2)c2c(=O)n(C)c(=O)n(C)c2n1`, the IC50 in the data set on MCF7 stood at 47.5 µM; with A-375 it was 45.7 µM. In addition, the half-maximal cytotoxic concentration (CC50) at 72 h in data set [1] was more than 100 µM.
On the same counts, the results for `Cn1c(=O)c2c(NCC(=O)Nc3ccc(Cl)cc3)cc(N3CCCC3)nc2n(C)c1=O` are 41.2 µM, 48.2 µM and more than 100 µM.
The corresponding values for `Cn1c(=O)c2c(NCC(=O)Nc3ccc(OC(F)(F)F)cc3)cc(N3CCCC3)nc2n(C)c1=O` are 36.2 µM, more than 50 µM and more than 100 µM.
Take `Cn1c(=O)c2c(Nc3ccc(OC(F)(F)F)cc3)cc(=O)n(C)c2n(C)c1=O`: the IC50 in the data set on MCF7 stood at 49.8 µM; in the data set with A-375 it was 40.7 µM. Further, the CC50 at 72 h in data set [1] is more than 100 µM.
On to `CN1CCN(c2cc(NCC(=O)Nc3ccc(Cl)cc3)c3c(=O)n(C)c(=O)n(C)c3n2)CC1`, for which the IC50 with MCF7 was more than 50 µM; with A-375 it was more than 50 µM; in the data set on SK-MEL-2 it was 22.4 µM; in the data set with SK-HEP1, more than 50 µM. Moreover, in data set [1], the 50% cytotoxic concentration (CC50) at 72 h is more than 25 µM.
For `CN(C)c1cc(NCC(=O)Nc2ccc(Cl)cc2)c2c(=O)n(C)c(=O)n(C)c2n1`, the IC50 was 49.2 µM in the data set with MCF7 and more than 50 µM in the data set on A-375. The compound also registered a half-maximal cytotoxic concentration (CC50) at 72 h in data set [1] of more than 100 µM.
The corresponding values for `Cn1c(=O)c2c(NCC(=O)Nc3ccc(F)cc3)cc(N3CCOCC3)nc2n(C)c1=O` are 45.4 µM, more than 50 µM and more than 100 µM.
Take `COC(=O)c1ccccc1Nc1cc(=O)n(C)c2c1c(=O)n(C)c(=O)n2C`: the IC50 in the data set with MCF7 was 33.4 µM; with A-375, more than 50 µM. This compound showed a CC50 at 72 h in data set [1] of more than 100 µM.
As for `CN1CCN(c2cc(NCC(=O)Nc3ccc(OC(F)(F)F)cc3)c3c(=O)n(C)c(=O)n(C)c3n2)CC1`, the IC50 with MCF7 was 39.3 µM; with A-375, 30.5 µM; in the data set on SK-MEL-2, 36.6 µM; in the data set with SK-HEP1, 34 µM. Also, in data set [1], the CC50 at 72 h was more than 100 µM.
In the case of `Cn1c(=O)c2c(NCC(=O)Nc3ccccc3)cc(N3CCCC3)nc2n(C)c1=O`, the results for the IC50 with MCF7 and in the data set with A-375 were 42.3 µM and more than 50 µM, respectively. In data set [1], the CC50 at 72 h is more than 100 µM.
As to `CN1CCN(c2cc(NCC(=O)Nc3ccc(C(F)(F)F)cc3)c3c(=O)n(C)c(=O)n(C)c3n2)CC1`, the IC50 was more than 50 µM in the data set with MCF7, more than 50 µM with A-375 and 46.4 µM in the data set on SK-MEL-2. Further, the CC50 at 72 h in data set [1] was more than 50 µM.
With `CCn1c(=O)n(C)c(=O)c2c(Nc3ccccc3C(=O)OC)cc(=O)n(C)c21`, the IC50 in the data set on MCF7 and in the data set on A-375 was more than 50 µM throughout. Moreover, the CC50 at 72 h in data set [1] is more than 100 µM.
For `Cn1c(=O)c2c(NCCCN3CCOCC3)c(Cc3ccccc3)c(=O)n(C)c2n(C)c1=O`, the half-inhibitory concentration (IC50) in the data set on MCF7 and in the data set with A-375 was more than 50 µM in each case. Besides, the CC50 at 72 h in data set [1] is more than 100 µM.
In the case of `Cn1c(=O)c2c(Nc3ccccn3)cc(=O)n(C)c2n(C)c1=O`, the figures for the IC50 with MCF7 and in the data set with A-375 were 10.2 µM and 25 µM, respectively. Besides, the CC50 at 72 h in data set [1] was more than 100 µM.
For `Cn1c(=O)c2c(NCC(=O)Nc3ccc(C(F)(F)F)cc3)cc(N3CCOCC3)nc2n(C)c1=O`, the half-maximal inhibitory concentration (IC50) in the data set on MCF7 is 46.6 µM; with A-375 it was more than 50 µM. Moreover, the CC50 at 72 h in data set [1] is more than 100 µM.
In the case of `CC(C)Nc1c(Cc2ccccc2)c(=O)n(C)c2c1c(=O)n(C)c(=O)n2C`, the IC50 was found to be 9.98 µM in the data set with MCF7 and 24.5 µM in the data set on A-375. In data set [1], the 50% cytotoxic concentration (CC50) at 72 h was more than 100 µM.
On the same counts, the results for `CCn1c(=O)n(C)c(=O)c2c(Nc3ccc(F)c(Cl)c3)cc(=O)n(C)c21` are more than 50 µM, more than 50 µM and more than 100 µM.
With `Cc1ccccc1NC(=O)CNc1cc(N(C)C)nc2c1c(=O)n(C)c(=O)n2C`, the IC50 in the data set on MCF7 was 49.9 µM; in the data set with A-375, more than 50 µM. The CC50 at 72 h in data set [1] is more than 100 µM.
The corresponding values for `CCn1c(=O)n(C)c(=O)c2c(Nc3ccccn3)cc(=O)n(C)c21` are 35 µM, 39.5 µM and more than 100 µM.
On to `Cc1cccc(NC(=O)CNc2cc(N3CCN(C)CC3)nc3c2c(=O)n(C)c(=O)n3C)c1`, for which the IC50 was 40 µM in the data set with A-375, 42.3 µM in the data set with SK-MEL-2 and 17.3 µM in the data set with SK-HEP1. In data set [1], this compound came in with a CC50 at 72 h of more than 25 µM.
On to `Cc1ccccc1NC(=O)CNc1cc(N2CCCC2)nc2c1c(=O)n(C)c(=O)n2C`, for which the IC50 worked out at 15.8 µM in the data set on MCF7, 7.6 µM with A-375, 6.59 µM in the data set on SK-MEL-2 and 10.7 µM in the data set with SK-HEP1. Moreover, the CC50 at 72 h in data set [1] was more than 100 µM.
As for `CN(C)c1cc(NCC(=O)Nc2cccc(C(F)(F)F)c2)c2c(=O)n(C)c(=O)n(C)c2n1`, the values for the IC50 in the data set on A-375 and with SK-MEL-2 were 31.9 µM and more than 50 µM, respectively. The compound also displayed a CC50 at 72 h in data set [1] of more than 100 µM.
For the compound `Cn1c(=O)c2c(NCC(=O)Nc3ccc(F)cc3)cc(N3CCCC3)nc2n(C)c1=O`, the IC50 with MCF7 was 39.6 µM; with A-375, more than 50 µM. Further, the CC50 at 72 h in data set [1] is more than 100 µM.
Take `O=c1[nH]cc(F)c(=O)[nH]1` [FLUOROURACIL]: the half-maximal inhibitory concentration (IC50) in the data set on MCF7 was found to be 7.42 µM; in the data set on A-375 it was 5.98 µM; with SK-MEL-2, 6.52 µM; in the data set on SK-HEP1, 4.95 µM.
On to `Cn1c(=O)c2c(Nc3ccc(F)c(Cl)c3)cc(=O)n(C)c2n(C)c1=O`, for which the IC50 was more than 50 µM with MCF7 and 49.6 µM with A-375. The compound further came in with a CC50 at 72 h in data set [1] of more than 100 µM.
On to `Cn1c(=O)c2c(NCC(=O)Nc3cccc(C(F)(F)F)c3)cc(N3CCOCC3)nc2n(C)c1=O`, for which the half-inhibitory concentration (IC50) in the data set with MCF7 worked out at 12 µM; in the data set with A-375, 7.36 µM; with SK-MEL-2 it was 4.03 µM; with SK-HEP1 it was 11 µM. Besides, in data set [1], the CC50 at 72 h was more than 100 µM.
For `CN(C)c1cc(NCC(=O)Nc2cccc(Cl)c2)c2c(=O)n(C)c(=O)n(C)c2n1`, the IC50 in the data set with A-375 was more than 50 µM; with SK-MEL-2, 41.2 µM. In data set [1], this compound yielded a CC50 at 72 h of more than 100 µM.
The corresponding values for `CN1CCN(c2cc(NCC(=O)Nc3cccc(C(F)(F)F)c3)c3c(=O)n(C)c(=O)n(C)c3n2)CC1` are 45 µM, more than 50 µM and more than 100 µM.
Take `CN1CCN(c2cc(NCC(=O)Nc3ccc(F)cc3)c3c(=O)n(C)c(=O)n(C)c3n2)CC1`: the IC50 in the data set with MCF7 was found to be 32.9 µM; in the data set on A-375, 44.7 µM; with SK-MEL-2 it was 19.9 µM; in the data set with SK-HEP1, 34.2 µM. In data set [1], the CC50 at 72 h is more than 50 µM.
For the compound `Cc1ccccc1NC(=O)CNc1cc(=O)n(C)c2c1c(=O)n(C)c(=O)n2C`, the IC50 with MCF7 turned out to be 17.2 µM; in the data set on A-375, 13 µM. Moreover, in data set [1], the CC50 at 72 h was more than 100 µM.
The corresponding values for `CN(C)CCNc1c(Cc2ccccc2)c(=O)n(C)c2c1c(=O)n(C)c(=O)n2C` are more than 50 µM, more than 50 µM and more than 100 µM.
